Experiments:
Type in all cases: biochemical
[1] = target: T1, Recombinant human HDAC2 (Homo sapiens, UniProt Q92769); assay: Human HDAC enzyme inhibitor Fluor-de-Lys assay, HDAC2
T1 construct: Full length human HDAC2-FLAG was expressed in baculovirus infected Sf9 cells; FLAG (C); made in house; host or cells: Sf9 (baculovirus)
Method in brief: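 Fluor-de-Lys format at room temperature (23° C.): compounds titrated 10-point, 1:3, preincubated with HDAC before substrate addition. Developer with excess HDAC inhibitor ends the reaction, and trypsin-liberated AMC fluorescence is the read-out.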

[2] = target: T2, Recombinant human HDAC1 (Homo sapiens, UniProt Q13547); assay: Human HDAC enzyme inhibitor Fluor-de-Lys assay, HDAC1
T2 construct: FLAG (C); made in house
T2 sequence (Q13547 whole entry): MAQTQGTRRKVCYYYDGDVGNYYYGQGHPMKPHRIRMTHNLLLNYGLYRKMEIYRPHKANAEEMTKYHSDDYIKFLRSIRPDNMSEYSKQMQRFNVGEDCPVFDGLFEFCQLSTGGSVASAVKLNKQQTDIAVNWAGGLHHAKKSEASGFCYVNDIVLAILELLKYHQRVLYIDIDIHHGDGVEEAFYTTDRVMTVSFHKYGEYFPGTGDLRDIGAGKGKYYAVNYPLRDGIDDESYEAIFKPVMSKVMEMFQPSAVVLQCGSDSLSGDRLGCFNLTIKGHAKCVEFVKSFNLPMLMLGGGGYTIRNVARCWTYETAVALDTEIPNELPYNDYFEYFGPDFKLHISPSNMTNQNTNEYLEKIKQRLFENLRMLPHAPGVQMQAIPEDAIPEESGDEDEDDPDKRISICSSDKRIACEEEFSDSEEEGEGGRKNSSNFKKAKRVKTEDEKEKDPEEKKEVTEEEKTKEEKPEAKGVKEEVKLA
Method in brief: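 Fluor-de-Lys format at room temperature (23° C.): compounds titrated 10-point, 1:3, preincubated with HDAC before substrate addition; HDAC1 run at 0.3 nM enzyme with 20 μM BML-KI104. Developer with excess HDAC inhibitor ends the reaction, and trypsin-liberated AMC fluorescence is the read-out.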

[3] = target: T3, Recombinant human HDAC8 (Homo sapiens, UniProt Q9BY41); assay: Human HDAC enzyme inhibitor Fluor-de-Lys assay, HDAC8
T3 construct: purchased Enzo Life Sciences BML-SE145-0100
T3 sequence (Q9BY41 1-377): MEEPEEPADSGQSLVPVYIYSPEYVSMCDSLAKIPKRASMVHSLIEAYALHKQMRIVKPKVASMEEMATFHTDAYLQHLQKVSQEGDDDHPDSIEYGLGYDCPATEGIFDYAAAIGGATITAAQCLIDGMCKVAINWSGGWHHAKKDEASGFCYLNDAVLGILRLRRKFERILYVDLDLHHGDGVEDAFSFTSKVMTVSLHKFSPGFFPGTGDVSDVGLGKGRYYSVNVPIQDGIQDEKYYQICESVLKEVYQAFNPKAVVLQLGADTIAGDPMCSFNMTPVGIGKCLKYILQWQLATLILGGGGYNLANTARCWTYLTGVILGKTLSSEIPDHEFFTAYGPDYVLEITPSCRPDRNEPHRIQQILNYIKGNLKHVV

[4] = target: T4, Recombinant human HDAC3/SMRT heterodimer (Homo sapiens, UniProt O15379); assay: Human HDAC enzyme inhibitor Fluor-de-Lys assay, HDAC3/SMRT
T4 construct: FLAG (C); made in house
T4 sequence (O15379 whole entry): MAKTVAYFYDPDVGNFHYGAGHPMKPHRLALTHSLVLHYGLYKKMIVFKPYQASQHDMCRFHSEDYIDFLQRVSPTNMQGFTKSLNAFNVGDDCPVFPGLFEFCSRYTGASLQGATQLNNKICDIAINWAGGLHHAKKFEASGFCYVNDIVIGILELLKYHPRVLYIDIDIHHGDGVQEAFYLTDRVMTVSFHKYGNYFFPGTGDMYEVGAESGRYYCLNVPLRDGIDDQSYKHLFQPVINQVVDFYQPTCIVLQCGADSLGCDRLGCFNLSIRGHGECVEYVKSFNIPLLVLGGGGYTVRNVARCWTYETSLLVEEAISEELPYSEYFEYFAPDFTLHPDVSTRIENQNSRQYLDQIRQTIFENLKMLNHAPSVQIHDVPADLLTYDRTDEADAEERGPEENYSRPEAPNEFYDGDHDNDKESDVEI
T4 sequence (Q9Y618 1-899 partner limits assumed): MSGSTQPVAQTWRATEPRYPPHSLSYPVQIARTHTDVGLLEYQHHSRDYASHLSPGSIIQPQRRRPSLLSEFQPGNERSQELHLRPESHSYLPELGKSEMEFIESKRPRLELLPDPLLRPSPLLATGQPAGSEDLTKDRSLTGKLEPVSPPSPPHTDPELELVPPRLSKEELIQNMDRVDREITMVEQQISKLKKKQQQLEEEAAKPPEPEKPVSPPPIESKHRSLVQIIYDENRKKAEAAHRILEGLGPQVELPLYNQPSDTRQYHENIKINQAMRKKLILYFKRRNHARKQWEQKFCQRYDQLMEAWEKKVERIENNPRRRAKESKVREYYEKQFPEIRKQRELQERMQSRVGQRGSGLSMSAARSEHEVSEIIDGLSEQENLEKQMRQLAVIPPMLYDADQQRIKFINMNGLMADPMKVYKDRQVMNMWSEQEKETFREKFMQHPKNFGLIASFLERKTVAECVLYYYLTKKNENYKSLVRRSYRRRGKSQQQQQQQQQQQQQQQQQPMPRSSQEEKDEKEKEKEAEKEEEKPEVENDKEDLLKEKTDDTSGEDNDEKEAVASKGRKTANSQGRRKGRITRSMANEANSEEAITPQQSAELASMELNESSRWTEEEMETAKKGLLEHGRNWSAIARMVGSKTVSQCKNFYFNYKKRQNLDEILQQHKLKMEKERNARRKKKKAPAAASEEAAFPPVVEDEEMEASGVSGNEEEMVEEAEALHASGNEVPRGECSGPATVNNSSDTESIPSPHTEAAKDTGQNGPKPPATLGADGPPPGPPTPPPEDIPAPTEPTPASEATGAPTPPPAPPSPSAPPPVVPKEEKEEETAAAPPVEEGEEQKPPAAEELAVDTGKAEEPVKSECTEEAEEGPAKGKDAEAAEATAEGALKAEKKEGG

[5] = target: T5, HDAC6 (Homo sapiens, UniProt Q9UBN7); assay: Human HDAC enzyme inhibitor Fluor-de-Lys assay, HDAC6
T5 sequence (Q9UBN7 1-1215): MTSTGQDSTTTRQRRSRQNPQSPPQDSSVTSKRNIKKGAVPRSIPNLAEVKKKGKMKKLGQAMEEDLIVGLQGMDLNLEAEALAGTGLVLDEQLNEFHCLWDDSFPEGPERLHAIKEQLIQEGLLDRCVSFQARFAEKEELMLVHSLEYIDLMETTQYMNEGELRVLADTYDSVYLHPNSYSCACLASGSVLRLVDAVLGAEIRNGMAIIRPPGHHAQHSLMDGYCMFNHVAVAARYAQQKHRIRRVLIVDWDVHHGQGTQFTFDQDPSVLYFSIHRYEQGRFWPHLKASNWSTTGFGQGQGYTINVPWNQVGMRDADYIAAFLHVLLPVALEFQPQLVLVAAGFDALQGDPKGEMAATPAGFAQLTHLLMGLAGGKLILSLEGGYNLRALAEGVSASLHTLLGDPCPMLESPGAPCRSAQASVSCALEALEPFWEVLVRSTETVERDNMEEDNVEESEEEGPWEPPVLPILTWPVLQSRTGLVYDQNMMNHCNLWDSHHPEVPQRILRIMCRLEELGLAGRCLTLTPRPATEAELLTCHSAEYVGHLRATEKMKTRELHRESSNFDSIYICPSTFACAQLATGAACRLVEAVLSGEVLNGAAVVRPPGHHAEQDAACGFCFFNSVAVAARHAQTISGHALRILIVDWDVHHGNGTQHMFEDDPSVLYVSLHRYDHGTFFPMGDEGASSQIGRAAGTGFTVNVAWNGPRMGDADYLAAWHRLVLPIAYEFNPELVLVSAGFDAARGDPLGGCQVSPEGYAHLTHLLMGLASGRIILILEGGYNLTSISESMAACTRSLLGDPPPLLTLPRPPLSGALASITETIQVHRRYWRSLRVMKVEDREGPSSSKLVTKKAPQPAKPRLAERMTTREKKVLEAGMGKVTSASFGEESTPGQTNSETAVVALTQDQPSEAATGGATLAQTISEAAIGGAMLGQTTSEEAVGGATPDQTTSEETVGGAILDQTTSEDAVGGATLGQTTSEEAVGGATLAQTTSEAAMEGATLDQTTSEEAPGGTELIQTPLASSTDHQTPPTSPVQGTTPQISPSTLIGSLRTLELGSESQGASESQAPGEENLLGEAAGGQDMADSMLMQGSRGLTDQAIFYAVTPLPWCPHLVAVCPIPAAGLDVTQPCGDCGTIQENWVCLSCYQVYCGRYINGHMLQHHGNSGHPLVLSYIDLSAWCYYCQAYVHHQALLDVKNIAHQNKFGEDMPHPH

T1 sequence (Q92769 whole entry): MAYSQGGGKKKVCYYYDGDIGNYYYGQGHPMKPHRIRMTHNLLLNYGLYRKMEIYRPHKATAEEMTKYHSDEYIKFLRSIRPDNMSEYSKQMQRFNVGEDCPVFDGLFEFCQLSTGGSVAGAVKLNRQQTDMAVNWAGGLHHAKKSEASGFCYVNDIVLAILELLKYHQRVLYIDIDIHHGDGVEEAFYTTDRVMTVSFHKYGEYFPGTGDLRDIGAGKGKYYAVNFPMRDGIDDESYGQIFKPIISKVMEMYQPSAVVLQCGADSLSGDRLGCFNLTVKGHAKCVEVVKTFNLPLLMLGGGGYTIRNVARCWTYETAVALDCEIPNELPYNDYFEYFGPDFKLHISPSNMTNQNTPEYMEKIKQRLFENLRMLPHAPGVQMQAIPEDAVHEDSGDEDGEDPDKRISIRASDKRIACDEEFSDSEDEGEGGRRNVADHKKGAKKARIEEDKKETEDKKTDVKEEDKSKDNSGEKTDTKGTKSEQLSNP

| SMILES | IC50 [1] | IC50 [2] | IC50 [3] | IC50 [4] | IC50 [5] |
| --- | --- | --- | --- | --- | --- |
| CCC(=O)CCCCC[C@H](NC(=O)[C@H]1CC12CCN(CC)CC2)c1ncc(-c2ccc(-c3cnc(C4CC4)cn3)cc2)o1 [Compound 129, (1S)—N-[(1S)-1-{5-[4-(5-cyclopropylpyrazin-2-yl)phenyl]-1,3-oxazol-2-yl}-7-oxononyl]-6-ethyl-6-azaspiro[2.5]octane-1-carboxamide] | 89 nM | 27 nM | 7720 nM | 14.2 nM | > 15000 nM |
| CCN1CCC2(CC1)C[C@@H]2C(=O)N[C@@H](CCCCCC(=O)CC1CC1)c1ncc(-c2ccc(F)cc2)[nH]1 [Compound 201] | 32.6 nM | 7.18 nM | 14200 nM | 8.06 nM | 35800 nM |
| CCC(=O)CCCCC[C@H](NC(=O)C1=NOC2(CCN(C(C)C)CC2)C1)c1ncc(-c2ccc3nc(C4CC4)ccc3c2)o1 [Compound 136] | 31.2 nM | 10.3 nM | 4800 nM | 6.41 nM | > 4500 nM |
| CCC(=O)CCCCC[C@H](NC(=O)C1CC12CCN(C)C(C)(C)C2)c1ncc(-c2ccc3nc(C)ccc3c2)[nH]1 (single isomer, unassigned) [Compound 130] | 15.3 nM | 5.6 nM | 6000 nM | 2.27 nM | 2120 nM |
| CCC(=O)CCCCC[C@H](NC(=O)[C@H]1CC12CCN(C)CC2)c1ncc(-c2ccc3c(=O)n(C)ccc3c2)o1 [Compound 137] | 17.2 nM | 7.78 nM | 33500 nM | 4.72 nM | 2760 nM |
| CCC(=O)CCCCC[C@H](NC(=O)C1CCC2(CC1)CN(C)C2)c1ncc(-c2ccc3nn(C)cc3c2)[nH]1 [Compound 156] | 15.1 nM | 5.03 nM | 5830 nM | 1.98 nM | 7530 nM |
| CCC(=O)CCCCC[C@H](NC(=O)C1CC2(C1)CN(C)C2)c1ncc(-c2ccc3nn(C)cc3c2)[nH]1 [Compound 147] | 10.3 nM | 2.29 nM | 2770 nM | < 1.5 nM | 3660 nM |
| CCC(=O)CCCCC[C@H](NC(=O)C1=NOC2(CCN(CC3CC3)CC2)C1)c1ncc(-c2cc3ccc(C)nc3cc2OC)[nH]1 [Compound 219] | 1.8 nM | 0.1 nM | > 900 nM | 0.34 nM | > 900 nM |
| CCC(=O)CCCCC[C@H](NC(=O)[C@H]1CC12CCN(CC)CC2)c1ncc(-c2ccc3nc(C4CC4)ccc3c2)o1 [Compound 114] | 4.7 nM | 1.12 nM | 27000 nM | 1.04 nM | 4090 nM |
| CCN1CCC2(CC1)C[C@@H]2C(=O)N[C@@H](CCCCCC(=O)CC1CC1)c1ncc(-c2cc3ccc(C)nc3cc2OC)o1 [Compound 167] | 8 nM | 0.97 nM | 8270 nM | 1.12 nM | 3320 nM |
| CCC(=O)CCCCC[C@H](NC(=O)[C@H]1CC[C@]2(CC1)OC(=O)c1ncccc12)c1ncc(-c2ccc3nc(C4CC4)ccc3c2)o1 [Compound 122] | 157 nM | 56.7 nM | 29300 nM | 20.5 nM | > 45000 nM |
| CCC(=O)CCCCC[C@H](NC(=O)[C@H]1CC12CCN(C)CC2)c1ncc(-c2cc(OC)ncc2F)o1 [Compound 220] | 251 nM | 29.9 nM | > 900 nM | 33.5 nM | > 900 nM |
| CCC(=O)CCCCC[C@H](NC(=O)[C@H]1CC12CCN(C)CC2)c1ncc(-c2ccc3nc(C)cc(Cl)c3c2)[nH]1 [Compound 174] | 2.1 nM | 0.55 nM | 1210 nM | 0.43 nM | 951 nM |
| CCC(=O)CCCCC[C@H](NC(=O)[C@H]1CC12CCN(CC1CC1)CC2)c1ncc(-c2ccc3nc(C4CC4)ccc3c2)o1 [Compound 115] | 2 nM | < 1.5 nM | 15400 nM | < 1.5 nM | 4290 nM |
| CCC(=O)CCCCC[C@H](NC(=O)[C@H]1CC12CCN(C)CC2)c1nc(F)c(-c2cc3ccccc3nc2OC)[nH]1 [Compound 75] | 101 nM | 29.3 nM | 27300 nM | 2.59 nM | > 45000 nM |
| CCC(=O)CCCCC[C@H](NC(=O)[C@H]1CC12CCN(CC)CC2)c1ncc(-c2cc3nn(C)cc3cc2OC)o1 [Compound 189] | 30 nM | 7.33 nM | 27500 nM | 2.34 nM | 159 nM |
| CCC(=O)CCCCC[C@H](NC(=O)[C@H]1CC12CCN(CC)CC2)c1ncc(-c2ccc(-c3cnc(C4CC4)nc3)cc2)o1 [Compound 161] | 163 nM | 54.5 nM | 26800 nM | 33 nM | 11700 nM |
| CCC(=O)CCCCC[C@H](NC(=O)[C@H]1CC12CCN(CC)CC2)c1ncc(-c2ccc3c(=O)n(CC)ccc3c2)o1 [Compound 162] | 9.5 nM | 3.24 nM | > 45000 nM | 2.84 nM | 6530 nM |
| C=CCN1CCC2(CC1)C[C@@H]2C(=O)N[C@@H](CCCCCC(=O)CC)c1ncc(-c2ccc3c(c2)C2CCC3N2CC=C)[nH]1 (stereo partly drawn) [Compound 179, (1S)—N-{(1S)-7-oxo-1-[5-(9-prop-2-en-1-yl-1,2,3,4-tetrahydro-1,4-epiminonaphthalen-6-yl)-1H-imidazol-2-yl]nonyl}-6-prop-2-en-1-yl-6-azaspiro[2.5]octane-1-carboxamide] | 380 nM | 58.3 nM | 8660 nM | 17.5 nM | 9530 nM |
| COc1cc2nc(C)ccc2cc1-c1cnc([C@H](CCCCCC(=O)CC2CC2)NC(=O)[C@H]2CC23CCN(C)CC3)o1 [Compound 195, (1S)—N-{(1S)-8-cyclopropyl-1-[5-(7-methoxy-2-methylquinolin-6-yl)-1,3-oxazol-2-yl]-7-oxooctyl}-6-methyl-6-azaspiro[2.5]octane-1-carboxamide] | 9.7 nM | 0.86 nM | 7860 nM | 1.71 nM | 21500 nM |
